The text below walks through data of patent US7009088B1, “Methods of modulating auxin production in plants” (priority 2000, dated 2006).

The test system of series [1] is wild type seedlings. Kind of series: Indole glucosinolate levels in seedlings grown on MS agar, quantified as SCN. As to conditions: wild type seedlings germinated on MS media with 100 μM compound, two week old, versus wild type. The series is classed as in vivo, Arabidopsis. As to the method:
FIG. 6. Indole glucosinolate levels are affected by CYP83B1 expression. Indole glucosinolates in individual two week old seedlings grown on MS agar were quantified calorimetrically as SCN. 1) Wild type, 2) rnt1-1, 3) molecularly complemented line 3.25.11, 4) overexpression line 1.4.7, and 5) wild type grown on 100 μM tryptamine. Data are represented as the mean±S.E, (n=10 seedlings). Except for the molecularly complemented line 3.25.11, mean indole glucosinolate values all differ from wild type seedling values at a 1% confidence value (t-test).
Tryptophan-derived indole-3-acetaldoxime is also an intermediate in the biosynthesis of indole glucosinolates.

Series [2] deals with T1, CYP83B1 (Arabidopsis thaliana, UniProt O65782).
T1 sequence (O65782 1-499): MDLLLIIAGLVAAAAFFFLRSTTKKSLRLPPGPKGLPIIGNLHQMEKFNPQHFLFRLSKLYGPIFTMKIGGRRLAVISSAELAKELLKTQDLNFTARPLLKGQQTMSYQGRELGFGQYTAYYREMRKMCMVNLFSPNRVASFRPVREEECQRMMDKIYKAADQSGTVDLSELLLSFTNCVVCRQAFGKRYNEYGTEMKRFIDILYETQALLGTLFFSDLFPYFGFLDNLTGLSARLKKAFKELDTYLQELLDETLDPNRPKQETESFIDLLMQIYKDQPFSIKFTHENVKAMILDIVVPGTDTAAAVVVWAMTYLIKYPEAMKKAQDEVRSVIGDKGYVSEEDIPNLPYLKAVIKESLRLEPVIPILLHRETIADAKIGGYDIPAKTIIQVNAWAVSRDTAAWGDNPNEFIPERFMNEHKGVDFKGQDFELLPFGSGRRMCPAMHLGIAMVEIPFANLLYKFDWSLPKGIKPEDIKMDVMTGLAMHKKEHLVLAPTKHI
Kind of series: Optical difference (binding) spectroscopy of yeast microsomes containing CYP83B1. The method, then:
(§1) FIG. 3. (A) Analysis of CYP83B1 by optical difference spectroscopy. […] After incubation for 10 min at 28° C. reaction mixtures were extracted with ethylacetate and analyzed by TLC. (s) substrate, (p) product.

In series [3] the target is T1, CYP83B1. The experiment in a line: CYP83B1 catalysis of [5-3H]indole-3-acetaldoxime metabolism in yeast microsomes. As to the method: as §1
After incubation, reaction mixtures were stopped by adding SDS to 0.4% and were analyzed by thin layer chromatography (TLC). TLC plates were developed in chloroform/methanol/water (85:14:1) and radioactive bands visualized by autoradiography.
Reactions were stopped and extracted with ethylacetate. Aliquots of the substrate-containing ethylacetate phase and product-containing water phase were subjected to liquid scintillation counting.

Series [4] has as its system Arabidopsis seedlings. Kind of series: Seedling growth on media supplemented with IAN (auxin phenotype). The series is classed as in vivo. The text has this:
Four nitrilases, differentially expressed during development and in response to environmental cues, catalyze hydrolysis of IAN to IAA in Arabidopsis (Bartel and Fink (1994) Proc. Natl. Acad. Sci. USA 91:6649–6653). The nitl mutant is insensitive to the auxin effects of exogenously applied […] at the seedling stage (Normanly et al. (1997) Plant Cell 9:1781–1790). In accordance with the observed insensitivity of nit1 seedlings to IAN, NIT1 is most strongly expressed in the hypocotyl near the junction with the root in young seedlings as well as in the cotyledons. In contrast, NIT2 and NIT3 are expressed primarily in the cotyledons and NIT4 is expressed in the root tip (Bartel and Fink (1994) Proc. Natl. Acad. Sci. USA 91:6649–6653).

Series [5] has as its target T2, NIT2 (Arabidopsis thaliana, UniProt P32962).
T2 sequence (P32962 1-339): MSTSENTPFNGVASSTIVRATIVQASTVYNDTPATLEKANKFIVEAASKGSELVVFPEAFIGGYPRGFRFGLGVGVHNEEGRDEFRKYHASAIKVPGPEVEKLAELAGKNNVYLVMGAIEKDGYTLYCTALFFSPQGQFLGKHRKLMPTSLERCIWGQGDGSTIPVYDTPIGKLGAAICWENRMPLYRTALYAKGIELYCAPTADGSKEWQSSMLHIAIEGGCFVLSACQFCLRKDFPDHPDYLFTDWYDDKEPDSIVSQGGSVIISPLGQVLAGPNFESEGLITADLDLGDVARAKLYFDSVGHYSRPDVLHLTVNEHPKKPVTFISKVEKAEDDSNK
The note with it: cited from earlier work.

Series [6] addresses T3, NIT1 (Arabidopsis thaliana, UniProt P32961).
T3 sequence (P32961 1-346): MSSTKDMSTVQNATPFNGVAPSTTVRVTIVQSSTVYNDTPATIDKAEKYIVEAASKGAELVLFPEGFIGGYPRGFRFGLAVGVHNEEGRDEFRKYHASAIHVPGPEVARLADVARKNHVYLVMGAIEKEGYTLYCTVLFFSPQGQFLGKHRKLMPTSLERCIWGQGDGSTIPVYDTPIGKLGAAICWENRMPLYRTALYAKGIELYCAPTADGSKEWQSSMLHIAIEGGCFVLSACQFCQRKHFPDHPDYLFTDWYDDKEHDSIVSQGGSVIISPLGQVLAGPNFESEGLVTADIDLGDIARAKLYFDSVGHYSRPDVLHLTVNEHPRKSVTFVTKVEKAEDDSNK
The note with it: cited from earlier work.

As for `NCCc1c[nH]c2ccccc12` [tryptamine], in series [1], the indole glucosinolate levels entry is “reduced levels”. The Kd in series [2] was 24 µM. The “inhibition of indole-3-acetaldoxime oxidation” value in series [3] (17.5 mM tryptamine, 35 μM [5-3H]indole-3-acetaldoxime, 22 nM CYP83B1, 10 min at 28° C., TLC) is “inhibitor”.

In turn, `ON=CCc1c[nH]c2ccccc12` [indole-3-acetaldoxime] returned a Kd in series [2] of 0.2 µM. For the same compound, the turnover in series [3] (in the presence of cysteine, 2.2 nM CYP83B1, 1 min at 28° C.) stood at 53 min⁻¹. Further, in series [3] (read-out: Michaelis-Menten constant Km, in the presence of cysteine, 2.2 nM CYP83B1, 1 min at 28° C.), the Km was 3 µM.

With `N#CCc1c[nH]c2ccccc12` [IAN, indole-3-acetonitrile], the “effect on germination / IAA phenotype” value in series [4] (rnt1-1 seedlings on 50 μM) is reported as “almost completely inhibiting germination”. Moreover, the seedling phenotype result in series [4] (wild type seedlings on media supplemented with 50 μM) is “phenocopy rnt1-1 seedlings”. Moreover, the “Km for IAN hydrolysis” value in series [5] and in series [6] was “in the mM range” throughout.

The Kd is the constant that tells how readily two partners part at equilibrium. In general, Km refers to the concentration of substrate that gives half-maximal velocity.
